The text below walks through data of patent US20210236497A1 (priority 2020, published 2021).

Counter-ions that a name gives are not always drawn. Like-named read-outs stand apart in the source and are kept apart here.

The term inhibition denotes how much of the control response was suppressed. Read a high inhibition as strong suppression.

The subject of series [1] is nCoV-2019 (SARS-CoV2) infected Vero E6 cells. Briefly: microbe, parasite or virus in culture. Conditions: for inhibition at 0.075 µM: Severe acute respiratory syndrome coronavirus 2, Vero C1008, 0.075 μM. The format is cell-based, SARS-CoV-2.
For series [2] the following is noted: cited from earlier work; for Observed toxic effect: humans.
The conditions of series [3]: mice; following 12 days post injection; cited from earlier work.
For series [4] the following is noted: Rats; total of multi dose; cited from earlier work.
For series [5] the following is noted: African green monkeys; 1.6 mg/kg x 14 days; total dose 22.4; cited from earlier work.

In turn, `NC(=O)c1cn([C@@H]2O[C@H](CO)[C@@H](O)[C@H]2O)c2ncnc(N)c12` [Oya2, 4-amino-7-((2R,3R,4S,5R)-3,4-dihydroxy-5-(hydroxymethyl)tetrahydrofuran-2-yl)-7H-pyrrolo[2,3-d]pyrimidine-5-carboxamide hydrochloride] registered an inhibition at 0.0094 µM in series [1] (Severe acute respiratory syndrome coronavirus 2, Vero C1008, 0.0094 μM, MOI 0.6 Plate 2, Table 4C) of 33.9%. In series [1] (Severe acute respiratory syndrome coronavirus 2, Vero C1008, 0.0375 μM, Plate 2, Table 6C), this compound showed an inhibition at 0.0375 µM of 12.2%. Moreover, the inhibition at 0.075 µM in series [1] (MOI 0.6 Plate 1, Table 3C) came out at 45.6%; in series [1] (MOI 0.6 Plate 2, Table 4C), 83.1%. The compound also had an inhibition at 0.15 µM in series [1] (Severe acute respiratory syndrome coronavirus 2, Vero C1008, 0.15 μM, MOI 0.6 Plate 1, Table 3C) of 90.1%.
For the compound `NC(=O)c1cn([C@@H]2O[C@H](CO)[C@@H](O)[C@H]2O)c2ncnc(N)c12` [Oya1, 4-amino-7-((2R,3R,4S,5R)-3,4-dihydroxy-5-(hydroxymethyl)tetrahydrofuran-2-yl)-7H-pyrrolo[2,3-d]pyrimidine-5-carboxamide], the anti-cancer activity result in series [2] (Phase I clinical trials during the 1960's) was “inactive against cancer”. Also, the tolerability in humans entry in series [2] (Phase I clinical trials, dosing levels of Table 8) was “well tolerated”. Besides, the Observed toxic effect in series [2] (daily, highest dosing regimen 120 μg/kg/day x 41 days) is recorded as 0; in series [2] (thrice weekly, highest dosing regimen 50-250 μg/kg/day x 45 days) it was 0; in series [2] (weekly, highest dosing regimen 200 μg/kg/day x 150 days), 0. Moreover, the “average toxicity margin or selectivity index” value in series [1] turned out to be 4.8. In addition, in series [1], the “toxicity margin or selectivity index, high” value was determined as 8.2. The “toxicity margin or selectivity index, low” value in series [1] was found to be 3.1. Also, the “fold increase in activity for Oya1 over chlorpromazine HCl” value in series [1] (MOI 0.6, FIG. 4 and FIG. 5) worked out at 1000 fold; in series [1] (MOI 1.3, FIG. 8 and FIG. 9), 1000 fold. Besides, the inhibition at 0.075 µM in series [1] (MOI 0.6 Plate 1) stood at 95.5%; in series [1] (MOI 0.6 Plate 2) it was 91.9%; in series [1] (Plate 1), 93.8%; in series [1] (Plate 2), 99.4%. Also, the amount cleared in series [3] is listed as 40%. Moreover, the “LD50, total dose” value in series [4] is reported as 1.2 mg/kg. The Effect entry in series [5] is recorded as “lethal”.
